This is an account of results in ChEMBL document CHEMBL5465560, “Selectivity Literature for EUbOPEN Chemogenomic Library” (2024).

Where a chain is given by its changes, count along the chain named.

What all share (conditions): at 1 µM
Experiment [1] addresses Receptor-type tyrosine-protein kinase FLT3 (Homo sapiens) (UniProt P36888). Nature of the experiment: (§1) Selectivity interaction (KinomeScan (DiscoverX)) EUB0001049a FLT3.
For experiment [2], the system named is T1, Receptor-type tyrosine-protein kinase FLT3 (Homo sapiens), P36888 [D835H].
T1 sequence (whole entry): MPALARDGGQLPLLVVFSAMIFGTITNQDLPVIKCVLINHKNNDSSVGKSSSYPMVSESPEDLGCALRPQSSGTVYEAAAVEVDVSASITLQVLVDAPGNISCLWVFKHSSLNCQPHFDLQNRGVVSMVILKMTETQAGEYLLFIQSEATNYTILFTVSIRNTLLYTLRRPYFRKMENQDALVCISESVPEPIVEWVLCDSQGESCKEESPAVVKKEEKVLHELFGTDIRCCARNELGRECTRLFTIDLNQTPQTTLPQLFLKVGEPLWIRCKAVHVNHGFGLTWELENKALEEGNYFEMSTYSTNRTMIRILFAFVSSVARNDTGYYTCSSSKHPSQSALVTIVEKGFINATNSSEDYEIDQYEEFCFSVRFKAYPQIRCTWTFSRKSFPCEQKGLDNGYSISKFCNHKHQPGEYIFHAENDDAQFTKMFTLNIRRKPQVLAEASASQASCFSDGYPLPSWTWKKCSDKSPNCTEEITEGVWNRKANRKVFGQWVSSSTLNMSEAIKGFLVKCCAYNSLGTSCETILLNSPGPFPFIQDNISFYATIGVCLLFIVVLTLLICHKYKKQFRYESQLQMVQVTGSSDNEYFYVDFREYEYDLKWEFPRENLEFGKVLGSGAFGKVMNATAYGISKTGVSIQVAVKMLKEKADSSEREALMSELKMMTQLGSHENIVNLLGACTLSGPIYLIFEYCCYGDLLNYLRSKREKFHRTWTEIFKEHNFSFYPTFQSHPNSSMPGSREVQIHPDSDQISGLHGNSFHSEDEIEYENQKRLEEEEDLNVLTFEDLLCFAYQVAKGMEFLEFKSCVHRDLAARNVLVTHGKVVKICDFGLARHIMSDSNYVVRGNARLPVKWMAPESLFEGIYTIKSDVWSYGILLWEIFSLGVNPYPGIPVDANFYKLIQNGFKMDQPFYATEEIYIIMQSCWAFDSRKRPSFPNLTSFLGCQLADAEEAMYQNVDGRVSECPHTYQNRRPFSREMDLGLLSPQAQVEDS
The experiment is described as §1.

In experiment [3] the test system is T2, Receptor-type tyrosine-protein kinase FLT3 (Homo sapiens), P36888 [D835V].
T2 sequence (whole entry): T1 sequence (whole entry) with H835V
Described as §1.

Experiment [4] has as its system T3, Receptor-type tyrosine-protein kinase FLT3 (Homo sapiens), P36888 [N841I].
T3 sequence (whole entry): T1 sequence (whole entry) with H835D, N841I
The description is as §1.

In experiment [5] the test system is Receptor-type tyrosine-protein kinase FLT3 (Homo sapiens), P36888 [UNDEFINED MUTATION]. Described as §1.

Regarding `COc1cc(Nc2nc(C)cc(-c3cnn4nc(OC)ccc34)n2)cc(C(F)(F)F)c1`, the % of control in experiment [1] is 100%; in experiment [2], 93%; in experiment [3], 86%; in experiment [4], 100%; in experiment [5] it was 81%.
